Read-outs that look alike come from different tables or passages of the source.
Columns and labels:
[1] = test system: Cimex lectularius susceptible to insecticides (Harold Harlan strain); details: observed, d-Phenothrin 0.25% alone
Experimental: (§1) Synergy was calculated using Abbott's synergy equation described in Levy Y et al., The joint action of fungicides in mixtures: comparison of two methods for synergy calculation, Bulletin OEPP/EPPO Bulletin, 1986, 16, 651-657. Specifically, a ratio greater than 1.0 of observed to expected percent mortality for combinations of two pesticides is evidence of synergy. Expected % mortality was calculated using the formula % Cexp=A+B−[…] where A is percent mortality of A. aegypti exposed to C8, 9, 10, B is percent mortality of A. aegypti exposed to permethrin and Cexp is expected percent mortality of A. aegypti exposed to a combination of C8, 9, 10 and permethrin.
(§2) The actives were suspended in 1 milliliter oil-based ultra-low volume sprays and sprayed into the wind tunnel. This exposed 10 adult male beg bugs to the spray. Each test was replicated three times. 1, 2, 3 and 4-day mortality of the bed bugs was then observed.

[2] = test system: Cimex lectularius resistant to deltamethrin (Lex8 strain); details: observed, d-Phenothrin 0.375% alone
Experimental: as §1, §2

[3] = test system: pyrethroid susceptible Aedes aegypti; assay: CDC bottle bioassay, susceptible strain; assay type: in vivo
Experimental: (§3) The following bioassays were performed to determine how pyrethroid susceptible and pyrethroid resistant Aedes aegypti responded to exposure to permethrin and the fatty acids mixture, separately and combined. The standard Centers for Disease Control (“CDC”) bottle bioassay method was used. The testing was conducted at Centro Internacional de Entrenamiento e Investigaciones Médicas (“CIDEIM”) in Colombia with susceptible and resistant Aedes aegypti. The compounds were diluted in acetone, added to the bottles, and bottles were rolled to coat them internally until dry. Susceptible and resistant mosquitoes were exposed inside the treated bottles.
(§4) Bottle bioassays assess susceptibility by measuring time-to-death of mosquitoes exposed in bottles coated internally with a “diagnostic concentration” of the test compound.

[4] = test system: A. aegypti susceptible to permethrin (Benzon research strain); details: observed, C8910 0%
Excerpt: (§5) In this bioassay, Aedes aegypti known to be resistant to permethrin (Key West strain) were exposed to C8, 9, 10 alone, permethrin alone, and combinations of C8, 9, 10 and permethrin at 1:5, 1:2, 1:1, 2:1 and 5:1 ratios in a standard wind tunnel bioassay. The actives were suspended in 1 milliliter oil-based ultra-low volume sprays and sprayed into the wind tunnel. This exposed 80 caged A. aegypti to the spray. Each test was replicated four times. Fifteen-minute, one-hour and twenty-four hour mortality of the resistant A. aegypti was then observed.
as §1
In this assay, A. aegypti known to be susceptible to permethrin (Benzon research strain) were exposed to C8, 9, 10 alone, permethrin alone, and combinations of C8, 9, 10 and permethrin at 1:5, 1:2, 1:1, 2:1 and 5:1 ratios in a standard wind tunnel bioassay identical to that described above.

[5] = test system: Aedes aegypti resistant to permethrin (Key West strain); details: observed, C8910 0%
Excerpt: as §5, §1

[6] = test system: pyrethroid resistant Aedes aegypti; assay: CDC bottle bioassay, resistant strain; assay type: in vivo; details: bottle coated with diagnostic concentration, n=5
Experimental: as §3, §4

[7] = test system: Aedes aegypti resistant and susceptible to permethrin; assay: WHO wind tunnel bioassay (Example 4); assay type: in vivo; details: 24 hour mortality
Experimental: In this bioassay, the standard WHO wind tunnel bioassay was used by CIDEIM. Aedes aegypti that were known to be resistant and susceptible to permethrin were used in the studies. […] solutions were prepared with the following ratios of C8, 9, 10 fatty acids mixture to permethrin: 2:1 (0.67% C8910+0.33% permethrin); 1:1 (0.5% C8910+0.5% permethrin); and 1:2 (0.33% C8910+0.67% permethrin). A one percent permethrin formulation was tested as well as a C8, 9, 10 fatty acids mixture.
The solutions were diluted in acetone to 1%, 0.1%, 0.01%, 0.001%, 0.0001%, and 0.00001%. Then 0.5 ml of each dilution was sprayed into the wind tunnel. This exposed 20 caged mosquitos to the spray. Each test was replicated three times. The 24 hour mortality was then observed. This type of assay is desirable because it tests the compounds without being formulated.

[8] = test system: Aedes aegypti resistant to permethrin (Key West strain); assay: Wind tunnel bioassay, various pyrethroids (Example 7); assay type: in vivo; details: pyrethroid alone 0.5% A.I., C8910 0%, 24 hours post-spray, mean
Excerpt: This exposed 80 caged A. aegypti to the spray. Each test was replicated four times.

[9] = susceptible strain, bottle coated with diagnostic concentration, n=5

CC(C)=CC1C(C(=O)OCc2cccc(Oc3ccccc3)c2)C1(C)C (stereo not drawn) [d-Phenothrin, Sumithrin (d-phenothrin)]
% Mortality ([1]; 1 day): 0.0% | % Mortality ([1]; 2 days): 0.0% | % Mortality ([1]; 3 days): 46.7% | % Mortality ([1]; 4 days): 56.7% | % Mortality ([2]; 1 day): 6.7% | % Mortality ([2]; 2 days): 10.0%

CC1(C)C(C=C(Cl)Cl)C1C(=O)OCc1cccc(Oc2ccccc2)c1 (centres unmarked) [Permethrin]
mortality ([3]; susceptible mosquitos, at about 80 minutes, FIG. 1): ~100% | LT50 [3, 9]: 18.8 min | LT99 [3, 9]: 99.3 min | % Mortality ([4]; 15 min, Permethrin 0.4%): 4.4% | % Mortality ([4]; 15 min, Permethrin 1.0%): 26.9% | % Mortality ([4]; 1 hour, Permethrin 0.4%): 34.1% | % Mortality ([4]; 1 hour, Permethrin 1.0%): 54.4% | % Mortality ([4]; 24 hour, Permethrin 0.4%): 42.5% | % Mortality ([4]; 24 hour, Permethrin 1.0%): 65.3% | % Mortality ([5]; 15 min, Permethrin 1.6%): 28.1% | % Mortality ([5]; 15 min, Permethrin 4.0%): 34.4% | % Mortality ([5]; 1 hour, Permethrin 1.6%): 41.6% | % Mortality ([5]; 1 hour, Permethrin 4.0%): 49.4% | % Mortality ([5]; 24 hour, Permethrin 1.6%): 55.0% | % Mortality ([5]; 24 hour, Permethrin 4.0%): 63.4% | LT50 [6]: 73.5 min | LT99 [6]: 306.7 min | mortality rate of resistant compared with susceptible mosquitos [7]: lower mortality rates

CC(C)=C[C@@H]1[C@@H](C(=O)O[C@H](C#N)c2cccc(Oc3ccccc3)c2)C1(C)C (relative stereo) [d,d,trans-cyphenothrin, d,d,trans-Cyphenothrin]
% Mortality 24 hour [8]: 76%

CC1(C)C(C(=O)OC(C#N)c2cccc(Oc3ccccc3)c2)C1(C)C (centres unmarked) [Fenpropathrin]
mortality at 0.5 % strength ([8]; Aedes aegypti): 65%

From US20180125068A1, “OCTANOIC, NONANOIC AND DECANOIC FATTY ACIDS WITH PYRETHROID ADULTICIDES” (priority 2016, published 2018)
